# Results reported in US20210386721A1, “SUBSTITUTED PHENYLPROPENYL PYRIDINE DERIVATIVES, THEIR PREPARATION AND PHARMACEUTICAL APPLICATIONS” (SHANGHAI HAIYAN PHARMACEUTICAL TECHNOLOGY CO., LTD., priority 2019, published 2021).
# How the values were obtained:
# [1] = target: T1, PD-1/PD-L1 (Homo sapiens, UniProt Q9NZQ7); assay: PD-1/PD-L1 binding assay (HTRF, PPI-HTRF); conditions: HTRF PD1/PD-L1 binding assay kit; 10 nM Tag1-PD-L1; 25° C.
# T1 construct: purchased Cisbio 63ADK000CPDPEB
# Procedure: Assay 1 PD-1/PD-L1 Binding Assay
# DMSO is from Sigma, Cat No: D5879; 384-well small volume plate (white) is from Greiner, Cat No: 784075; Anti-PD1 blocking antibody (IC50: 10 nM) is from Cisbio, Cat No: 64CUS000C-1a; Anti-PDL1 blocking antibody (IC50: 0.3 nM) is from Cisbio, Cat No: 64CUS000C-1b; HTRF PD1/PD-L1 binding assay kit is from Cisbio, Cat No: 63ADK000CPDPEB.
# 1. Prepare the compound to be tested at 2x concentration into 1× reaction buffer containing 4% DMSO;
# 2. Tag1-PD-L1 protein and Tag2-PD1 protein were prepared in 1× reaction buffer at concentrations of […] and 10 nM, respectively. The final reaction concentration of the experiment was 10 nM Tag1-PD-L1 and 2 nM […];
# 3. anti-Tag1-Eu3+ antibody is prepared in 1x concentration detection buffer at a ratio of 1:100;
# 4. anti-Tag2-XL665 antibody is prepared in 1x concentration detection buffer at a ratio of 1:25; Experimental steps
# 1. 5 μL of compounds to be tested (2×) was added;
# 2. 2.5 ul Tag1-PD-L1 protein and 2.5 ul Tag2-PD1 protein were added respectively, and the total reaction system is 10 ul, and reacted at 25° C. for 15 minutes;
# 3. 5 ul anti-Tag1-Eu3+ antibody and 5 ul anti-Tag2-XL665 antibody were added respectively, and reacted at 25° C. for 16 hours;
# 4. The fluorescence microplate reader HTRF reading program was used to read two readings at 665 nm and 620 nm, the ratio of the two wavelengths was used to judge the activity of the compound, and the IC50 of the compound to be tested is calculated by XLFIT5.0 (IDBS).
# [2] = test system: Jurkat T(PD1 Luc-)/CHOK1(PDL-1); assay: Jurkat T(PD1 Luc-)/CHOK1(PDL-1) cell experiment (luciferase reporter); format: cell-based; conditions: CHO/PD-L1-OKT3 cells co-cultured with Jurkat/PD1-NFAT-Luc cells for 6 hours; Bio-Glo luciferase signal
# Procedure: Assay 2 Jurkat T(PD1 Luc-)/CHOK1(PDL-1) Cell Experiment
# G418, Sangon Biotech #A100859-0001, Cat Number G108BA0003, 5 ml of deionized water being added into each bottle, store at 4° C.
# CHO/PD-L1-OKT3 cells (constructed by referring to Promega's PD-1/PD-L1 Blockade Bioassays system) cultured in F-12K medium (containing 10% FBS, 800 ug/ml G418, 400 ug/ml D Hygromycin B) were planted into a 96-well plate at 2×10^4 per well, and incubated for 24 hours at 37° C. and 5% CO2. part of the medium was removed, and the test compound dissolved in DMSO with a final concentration of 1 uM was added, and DMSO at the same concentration was added into the control cells. Jurkat/PD1-NFAT-Luc cells (constructed by referring to Promega's PD-1/PD-L1 Blockade Bioassays system) were added at 5×10^5 per well at the same time, and cultured for 6 hours. The corresponding luciferase signal was detected by Bio-Glo™ (Promega, G7940) reagent. The EC50 of each compound to be tested was calculated through the non-linear regression of XLfit software.
# T1 sequence (Q9NZQ7 19-238 limits assumed): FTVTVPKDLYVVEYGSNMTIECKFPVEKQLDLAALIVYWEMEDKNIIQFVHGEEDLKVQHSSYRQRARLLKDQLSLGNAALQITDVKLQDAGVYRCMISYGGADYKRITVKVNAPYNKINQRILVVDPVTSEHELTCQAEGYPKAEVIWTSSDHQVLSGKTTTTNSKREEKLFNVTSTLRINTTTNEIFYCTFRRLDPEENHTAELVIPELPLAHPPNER
Compound,IC50 [1] [nM],EC50 [2] [nM]
COC(=O)[C@@H]1CCN(Cc2cc(C(F)(F)F)c(/C=C/c3cccc(-c4cccc(NC(=O)c5cc(OC)c(CN6CC[C@@H](O)C6)cn5)c4C)c3C)cc2OC)C1 [Z-133],2,31
COc1cc(/C=C/c2cccc(-c3cccc(-c4nc5cc(CN6CC[C@@H](C(=O)O)C6)cc(C#N)c5o4)c3C)c2C)c(C(F)(F)F)cc1CN1CC[C@H](O)C1 [Z-29],2,109
CCOC(=O)[C@@H]1CCN(Cc2cc(C#N)c3oc(-c4cccc(-c5cccc(/C=C/c6cc(OC)c(CN7CC[C@@H](O)C7)cc6C(F)(F)F)c5C)c4C)nc3c2)C1 [Z-45],,70
COc1cc(/C=C/c2cccc(-c3cccc(NC(=O)c4cc(OC)c(CN5CC[C@@H](O)C5)cn4)c3C)c2C)c(C(F)(F)F)cc1CN1CCC(C(=O)NS(C)(=O)=O)C1 (stereo partly shown) [Z-139],,7
COc1cc(/C=C/c2cccc(-c3cccc(-c4cnc(CNC[C@@H]5CCC(=O)N5)c(OC)n4)c3Cl)c2C)c(C(F)(F)F)cc1CN1CC[C@@H](C(=O)O)C1 [Z-58],,78
Cc1cc(/C=C/c2nccc(-c3cccc(-c4nc5cc(CN6CCC(C(=O)O)C6)cc(Cl)c5o4)c3C)c2C#N)c(C(F)(F)F)cc1CN1CC[C@@H](O)C1 (stereo partly shown) [Z-48],,70
COc1cc(/C=C/c2cccc(-c3cccc(-c4nc5cc(CN6CC[C@@H](C(=O)O)C6)cc(C#N)c5o4)c3F)c2C)c(C(F)(F)F)cc1CN1CC[C@@H](O)C1 [Z-28],5,
"Cc1cc(/C=C/c2nccc(-c3cccc(NC(=O)c4ccc(CN5CCOCC5)cn4)c3C)c2C#N)c(Cl)cc1CN1CC[C@@H](C(=O)O)C1 [Z-70, (R,E)-1-(5-chloro-4-(2-(3-cyano-4-(2-methyl-3-(5-(morpholinomethyl)picolinamido)phenyl)pyridin-2-yl)vinyl)-2-methylbenzyl)pyrrolidine-3-carboxylic Acid]",3,
COc1cc(/C=C/c2cccc(-c3cccc(-c4nc5cc(CN6CC[C@H](C(=O)O)C6)ccc5o4)c3C)c2C)c(C(F)(F)F)cc1CN1CC[C@H](O)C1 [Z-32],2,
"Cc1cc(/C=C/c2nccc(-c3cccc(NC(=O)c4nc5c(n4C)CCN(C)C5)c3C)c2C#N)c(Cl)cc1CN1CCCC[C@H]1C(=O)O [Z-66, (S,E)-1-(5-chloro-4-(2-(3-cyano-4-(3-(1,5-dimethyl-4,5,6,7-tetrahydro-1H-imidazo[4,5-c]pyridine-2-carboxamido)-2-methylphenyl)pyridin-2-yl)vinyl)-2-methylbenzyl)piperidine-2-carboxylic Acid]",2,
Cc1cc(/C=C/c2nccc(-c3cccc(NC(=O)c4ccc(CN5CC[C@@H](O)C5)cn4)c3C)c2C#N)c(Cl)cc1CN1CC[C@@H](C(=O)O)C1 [Z-68],1,
COc1cc(/C=C/c2cccc(-c3cccc(-c4nc5cc(CN6CC[C@@H](O)C6)cc(Cl)c5o4)c3C)c2C)c(C(F)(F)F)cc1CN1CC[C@@H](C(=O)O)C1 [Z-22],2,
COc1cc(/C=C/c2cccc(-c3cccc(-c4nc5cc(CN6CC[C@@H](O)C6)cc(C#N)c5o4)c3C)c2C)c(C(F)(F)F)cc1CN1CC[C@@H](O)C1 [Z-37],1,
COc1cc(/C=C/c2cccc(-c3cccc(-c4nc5cc(CN6CCC[C@H]6C(=O)O)cc(C#N)c5o4)c3C)c2C)c(C(F)(F)F)cc1CN1CC[C@@H](O)C1 [Z-39],1,
Cc1cc(/C=C/c2cccc(-c3cccc(-c4nc5cc(CN6CC[C@@H](O)C6)ccc5o4)c3C)c2C)c(C(F)(F)F)cc1CN1CC[C@@H](C(=O)O)C1 [Z-17],1,
"Cc1c(NC(=O)c2ccc(CNCCO)cn2)cccc1-c1ccnc(/C=C/c2ccc3c(c2)CCN(CC(=O)O)C3)c1C#N [Z-3, (E)-2-(6-(2-(3-cyano-4-(3-(5-(((2-hydroxyethyl)amino)methyl)picolinamido)-2-methylphenyl)pyridin-2-yl)vinyl)-3,4-dihydroisoquinolin-2(1H)-yl)acetic Acid]",9,
"Cc1cc(/C=C/c2nccc(-c3cccc(NC(=O)c4ccc(CN5CC[C@@H](O)C5)cn4)c3C)c2C#N)c(Cl)cc1CN1CC2(CC(C(=O)O)C2)C1 [Z-78, (R,E)-2-(5-chloro-4-(2-(3-cyano-4-(3-(5-((3-hydroxypyrrolidin-1-yl)methyl)picolinamido)-2-methylphenyl)pyridin-2-yl)vinyl)-2-methylbenzyl)-2-azaspiro[3.3]heptane-6-carboxylic Acid]",13,
Cc1c(NC(=O)c2ccc(CN3CC[C@@H](O)C3)cn2)cccc1-c1ccnc(/C=C/c2cc3nc(CN4CC[C@H](C(=O)O)C4)oc3cc2Cl)c1C#N [Z-64],18,
"COc1cc(/C=C/c2cccc(-c3cccc(OC4CCc5cc(CN6CC[C@@H](O)C6)ccc54)c3Cl)c2C)c(C(F)(F)F)cc1CN1CC[C@@H](C(=O)O)C1 (stereo partly drawn) [Z-62, (3R)-1-(4-((E)-2-(2′-chloro-3′-((5-(((R)-3-hydroxypyrrolidin-1-yl)methyl)-2,3-dihydro-1H-inden-1-yl)oxy)-2-methyl-[1,1′-biphenyl]-3-yl)vinyl)-2-methoxy-5-(trifluoromethyl)benzyl)pyrrolidine-3-carboxylic Acid]",3,

# Now from value to compound, other results behind:
IC50 [1] [nM],Compound,EC50 [2] [nM]
1,COc1cc(/C=C/c2cccc(-c3cccc(-c4nc5cc(CN6CC[C@@H](C(=O)O)C6)cc(C#N)c5o4)c3C)c2Cl)c(C(F)(F)F)cc1CN1CC[C@@H](O)C1 [Z-38],83
1,COc1cc(/C=C/c2cccc(-c3cccc(-c4nc5cc(CN6CC[C@@H](O)C6)cc(C#N)c5o4)c3C)c2C#N)c(C(F)(F)F)cc1CN1CC[C@@H](C(=O)O)C1 [Z-43],72
1,"COc1cc(/C=C/c2cccc(-c3cccc(NC(=O)c4nc5c(n4C)CCN(CCO)C5)c3Cl)c2C)c(C(F)(F)F)cc1CN1CCCC[C@H]1C(=O)O [Z-113, (S, E)-1-(4-(2-(2′-chloro-3′-(5-(2-hydroxyethyl)-1-methyl-4,5,6,7-tetrahydro-1H-imidazo [4,5-c]pyridine-2-carboxamido)-2-methyl-[1,1′-biphenyl]-3-yl)vinyl)-2-methoxy-5-(trifluoromethyl)benzyl) piperidine-2-carboxylic Acid]",66
1,Cc1cc(/C=C/c2nccc(-c3cccc(NC(=O)c4ccc(CN5CC[C@@H](O)C5)cn4)c3Cl)c2C#N)c(Cl)cc1CN1CCCC[C@H]1C(=O)O [Z-81],44
1,COc1cc(/C=C/c2cccc(-c3cccc(NC(=O)c4cc(OC)c(CN5CC[C@@H](O)C5)cn4)c3C)c2C)c(C(F)(F)F)cc1CN1CCC(C(=O)O)CC1 [Z-122],18
1,"COc1cc(/C=C/c2cccc(-c3cccc(NC(=O)c4ccc(CN5CC[C@@H](O)C5)cn4)c3Cl)c2C)c(C(F)(F)F)cc1CN1CCC(C)(C(=O)O)C1 (stereo partly drawn) [Z-87, 1-(4-((E)-2-(2′-chloro-3′-(5-(((R)-3-hydroxypyrrolidin-1-yl)methyl)picolinamido)-2-methyl-[1,1′-biphenyl]-3-yl)vinyl)-2-methoxy-5-(trifluoromethyl)benzyl)-3-methylpyrrolidine-3-carboxylic Acid]",26
1,COc1cc(/C=C/c2cccc(-c3cccc(-c4nc5cc(CN6CC[C@@H](O)C6)ccc5o4)c3C)c2C)c(C(F)(F)F)cc1CN1CC[C@@H](C(=O)O)C1 [Z-16],
1,COc1cc(/C=C/c2cccc(-c3cccc(NC(=O)c4ccc(CN5CC[C@@H](O)C5)cc4)c3C)c2C)c(C(F)(F)F)cc1CN1CC[C@@H](C(=O)O)C1 [Z-123],
1,COc1cc(/C=C/c2cccc(-c3cccc(-c4nc5cc(CN6CC[C@@H](C(=O)O)C6)cc(C#N)c5o4)c3C)c2F)c(C(F)(F)F)cc1CN1CC[C@@H](O)C1 [Z-25],
1,"COc1cc(/C=C/c2cccc(-c3cccc(NC(=O)c4cn5c(n4)CN(C)CC5)c3C)c2C)c(C(F)(F)F)cc1CN1CCC(C(=O)O)C1 (stereo not shown) [Z-129, (E)-1-(4-(2-(2,2′-dimethyl-3′-(7-methyl-5,6,7,8-tetrahydroimidazo[1,2-a]pyrazine-2-carboxamido)-[1,1′-biphenyl]-3-yl)vinyl)-2-methoxy-5-(trifluoromethyl)benzyl)pyrrolidine-3-carboxylic Acid]",
